This passage reports IC50 results from patent US5599975A, “Cyclised analogues of fatty acid metabolites” (Adir Et Compagnie, priority 1993, dated 1997).

This experiment has as its system rabbit platelets. Briefly: Platelet aggregation study: anti-aggregating effect on platelets activated with collagen. The note with it: Oryctolagus cuniculus, 0.05 h, collagen (2 μl/ml), 37° C., 3 minutes incubation, aggregometer, 1000 rpm, read-out: IC50 (concentration of antagonist necessary to produce 50% inhibition of the aggregating responses to collagen). Format: cell-based. The protocol: The study is carried out on rabbit platelets. […] The plasma rich in platelets (PRP) is obtained by centrifuging (20° C.) at 250 g for 20 minutes. The PRP is centrifuged again (1000 g) for 15 minutes and the platelet sediment is again suspended in a saline solution buffered with tris(hydroxymethyl)aminomethane, containing gelatin (0.2%). After centrifuging again (1000 g; 15 min.), the sediment is again suspended in a physiological solution and stored at room temperature.
The anti-aggregating effect of the products is examined on platelets activated with collagen (2 μl/ml). The platelet aggregation is carried out at 37° C. in siliconised glass tubes using an aggregometer (Coultronics). The platelets are stirred at 1000 rpm. To test the antagonist effect, the PRP is incubated for 3 minutes at 37° C. with the substance to be tested. The collagen is then added (2 μl/ml).

pIC50: −log10 of the molar value.

Consider `CCCCCC(O)c1cccc(/C=C\CCCC(=O)O)c1` (centres unmarked) [Example 12, Sodium (5Z)-6-[3-(1-hydroxyhex-1-yl)phenyl]hex-5-enoate], for which the pIC50 was 4.70. Regarding `CCCCC/C=C\CC(O)c1cccc(/C=C\CCCC(=O)O)c1` (centres unmarked) [Example 26, Sodium (5Z)-6-{3-[(3Z)-(1-hydroxynon-3-en-1-yl)]phenyl}hex-5-enoate], the pIC50 is 5.74. The same measure for `CCCCCC(O)c1cccc(/C=C\CCCC(=O)O)n1` (centres unmarked) [Example 18, Sodium (5Z)-6-[6-(1-hydroxyhex-1-yl)pyrid-2-yl]hex-5-enoate]: 4.52; for `CCCCCC#CCC(O)c1cccc(/C=C\CCCC(=O)O)c1` (centres unmarked) [Example 4]: 5.66; for `CCCCCC(O)c1cccc(CCCCCC(=O)O)c1` (centres unmarked) [Example 15, Sodium 6-[3-(1-hydroxyhexyl)phenyl]hexanoate]: 4.68.
